In patent US12415816B2, “Benzothiazole derivatives and 7-aza-benzothiazole derivatives as janus kinase 2 inhibitors and uses thereof” (Dana-Farber Cancer Institute, Inc., priority 2018, dated 2025):

Experiments:
RIPK1 = RIPK1 (Homo sapiens (Human), UniProt Q13546); assay: KINOMEscan kinase selectivity profiling; type: binding; conditions: read-out: Ambit KINOMEscan of compound I-5 at 10 μM (percent control %)
CSF1R = CSF1R (Homo sapiens (Human), UniProt P07333); assay: KINOMEscan kinase selectivity profiling; type: binding; conditions: read-out: Ambit KINOMEscan of compound I-5 at 10 μM (percent control %)
PFTK1 = PFTK1 (Homo sapiens (Human), UniProt O94921); assay: KINOMEscan kinase selectivity profiling; type: binding; conditions: read-out: Ambit KINOMEscan of compound I-5 at 10 μM (percent control %)
TAK1 = TAK1 (Homo sapiens (Human), UniProt O43318); assay: KINOMEscan kinase selectivity profiling; type: binding; conditions: read-out: Ambit KINOMEscan of compound I-5 at 10 μM (percent control %)
EPHA8 = EPHA8 (Homo sapiens (Human), UniProt P29322); assay: KINOMEscan kinase selectivity profiling; type: binding; conditions: read-out: Ambit KINOMEscan of compound I-5 at 10 μM (percent control %)
MERTK = MERTK (Homo sapiens (Human), UniProt Q12866); assay: KINOMEscan kinase selectivity profiling; type: binding; conditions: read-out: Ambit KINOMEscan of compound I-5 at 10 μM (percent control %)
EPHB1 = EPHB1 (Homo sapiens (Human), UniProt P54762); assay: KINOMEscan kinase selectivity profiling; type: binding; conditions: read-out: Ambit KINOMEscan of compound I-5 at 10 μM (percent control %)
KIT = KIT (Homo sapiens (Human), UniProt P10721); assay: KINOMEscan kinase selectivity profiling; type: binding; conditions: read-out: Ambit KINOMEscan of compound I-5 at 10 μM (percent control %)
CDKL3 = CDKL3 (Homo sapiens (Human), UniProt Q8IVW4); assay: KINOMEscan kinase selectivity profiling; type: binding; conditions: read-out: Ambit KINOMEscan of compound I-5 at 10 μM (percent control %)
PDGFRB = PDGFRB (Homo sapiens (Human), UniProt P09619); assay: KINOMEscan kinase selectivity profiling; type: binding; conditions: read-out: Ambit KINOMEscan of compound I-5 at 10 μM (percent control %)
HPK1 = HPK1 (Homo sapiens (Human), UniProt Q92918); assay: KINOMEscan kinase selectivity profiling; type: binding; conditions: read-out: Ambit KINOMEscan of compound I-5 at 10 μM (percent control %)
MAP4K2 = MAP4K2 (Homo sapiens (Human), UniProt Q12851); assay: KINOMEscan kinase selectivity profiling; type: binding; conditions: read-out: Ambit KINOMEscan of compound I-5 at 10 μM (percent control %)
PFTAIRE2 = PFTAIRE2 (Homo sapiens (Human), UniProt Q96Q40); assay: KINOMEscan kinase selectivity profiling; type: binding; conditions: read-out: Ambit KINOMEscan of compound I-5 at 10 μM (percent control %)
PDGFRA = PDGFRA (Homo sapiens (Human), UniProt P16234); assay: KINOMEscan kinase selectivity profiling; type: binding; conditions: read-out: Ambit KINOMEscan of compound I-5 at 10 μM (percent control %)
RET(M918T) = RET(M918T) (Homo sapiens (Human), UniProt P07949, M918T); assay: KINOMEscan kinase selectivity profiling; type: binding; conditions: read-out: Ambit KINOMEscan of compound I-5 at 10 μM (percent control %)
TIE2 = TIE2 (Homo sapiens (Human), UniProt Q02763); assay: KINOMEscan kinase selectivity profiling; type: binding; conditions: read-out: Ambit KINOMEscan of compound I-5 at 10 μM (percent control %)
RET(V804L) = RET(V804L) (Homo sapiens (Human), UniProt P07949, V804L); assay: KINOMEscan kinase selectivity profiling; type: binding; conditions: read-out: Ambit KINOMEscan of compound I-5 at 10 μM (percent control %)
EPHA6 = EPHA6 (Homo sapiens (Human), UniProt Q9UF33); assay: KINOMEscan kinase selectivity profiling; type: binding; conditions: read-out: Ambit KINOMEscan of compound I-5 at 10 μM (percent control %)
FES = FES (Homo sapiens (Human), UniProt P07332); assay: KINOMEscan kinase selectivity profiling; type: binding; conditions: read-out: Ambit KINOMEscan of compound I-5 at 10 μM (percent control %)
TRKC = TRKC (Homo sapiens (Human), UniProt Q16288); assay: KINOMEscan kinase selectivity profiling; type: binding; conditions: read-out: Ambit KINOMEscan of compound I-5 at 10 μM (percent control %)
CDC2L2 = CDC2L2 (Homo sapiens (Human), UniProt Q9UQ88); assay: KINOMEscan kinase selectivity profiling; type: binding; conditions: read-out: Ambit KINOMEscan of compound I-5 at 10 μM (percent control %)
SRC = SRC (Homo sapiens (Human), UniProt P12931); assay: KINOMEscan kinase selectivity profiling; type: binding; conditions: read-out: Ambit KINOMEscan of compound I-5 at 10 μM (percent control %)
JAK2 = JAK2 (Homo sapiens (Human), UniProt O60674); assay: JAK2 Z-Lyte biochemical assay; conditions: commercial JAK2 Z-Lyte assay from Invitrogen
Method: The JAK2 Z-Lyte biochemical assay was performed according to manufacturer's instructions (Life Technologies).

KIT(V559D) = KIT(V559D) (Homo sapiens (Human), UniProt P10721, V559D); assay: KINOMEscan kinase selectivity profiling; type: binding; conditions: read-out: Ambit KINOMEscan of compound I-5 at 10 μM (percent control %)
FGR = FGR (Homo sapiens (Human), UniProt P09769); assay: KINOMEscan kinase selectivity profiling; type: binding; conditions: read-out: Ambit KINOMEscan of compound I-5 at 10 μM (percent control %)
LYN = LYN (Homo sapiens (Human), UniProt P07948); assay: KINOMEscan kinase selectivity profiling; type: binding; conditions: read-out: Ambit KINOMEscan of compound I-5 at 10 μM (percent control %)
FLT4 = FLT4 (Homo sapiens (Human), UniProt P35916); assay: KINOMEscan kinase selectivity profiling; type: binding; conditions: read-out: Ambit KINOMEscan of compound I-5 at 10 μM (percent control %)
p38-delta = p38-delta (Homo sapiens (Human), UniProt O15264); assay: KINOMEscan kinase selectivity profiling; type: binding; conditions: read-out: Ambit KINOMEscan of compound I-5 at 10 μM (percent control %)
RAF1 = RAF1 (Homo sapiens (Human), UniProt P04049); assay: KINOMEscan kinase selectivity profiling; type: binding; conditions: read-out: Ambit KINOMEscan of compound I-5 at 10 μM (percent control %)
ABL2 = ABL2 (Homo sapiens (Human), UniProt P42684); assay: KINOMEscan kinase selectivity profiling; type: binding; conditions: read-out: Ambit KINOMEscan of compound I-5 at 10 μM (percent control %)
TAOK3 = TAOK3 (Homo sapiens (Human), UniProt Q9H2K8); assay: KINOMEscan kinase selectivity profiling; type: binding; conditions: read-out: Ambit KINOMEscan of compound I-5 at 10 μM (percent control %)
BRAF(V600E) = BRAF(V600E) (Homo sapiens (Human), UniProt P15056, V600E); assay: KINOMEscan kinase selectivity profiling; type: binding; conditions: read-out: Ambit KINOMEscan of compound I-5 at 10 μM (percent control %)
TRKB = TRKB (Homo sapiens (Human), UniProt Q16620); assay: KINOMEscan kinase selectivity profiling; type: binding; conditions: read-out: Ambit KINOMEscan of compound I-5 at 10 μM (percent control %)
INSRR = INSRR (Homo sapiens (Human), UniProt P14616); assay: KINOMEscan kinase selectivity profiling; type: binding; conditions: read-out: Ambit KINOMEscan of compound I-5 at 10 μM (percent control %)
RET(V804M) = RET(V804M) (Homo sapiens (Human), UniProt P07949, V804M); assay: KINOMEscan kinase selectivity profiling; type: binding; conditions: read-out: Ambit KINOMEscan of compound I-5 at 10 μM (percent control %)
EPHB4 = EPHB4 (Homo sapiens (Human), UniProt P54760); assay: KINOMEscan kinase selectivity profiling; type: binding; conditions: read-out: Ambit KINOMEscan of compound I-5 at 10 μM (percent control %)
EPHA4 = EPHA4 (Homo sapiens (Human), UniProt P54764); assay: KINOMEscan kinase selectivity profiling; type: binding; conditions: read-out: Ambit KINOMEscan of compound I-5 at 10 μM (percent control %)
KIT(L576P) = KIT(L576P) (Homo sapiens (Human), UniProt P10721, L576P); assay: KINOMEscan kinase selectivity profiling; type: binding; conditions: read-out: Ambit KINOMEscan of compound I-5 at 10 μM (percent control %)
ABL1(Q252H) = ABL1(Q252H) (Homo sapiens (Human), UniProt P00519, Q252H); assay: KINOMEscan kinase selectivity profiling; type: binding; conditions: read-out: Ambit KINOMEscan of compound I-5 at 10 μM (percent control %)
TIE1 = TIE1 (Homo sapiens (Human), UniProt P35590); assay: KINOMEscan kinase selectivity profiling; type: binding; conditions: read-out: Ambit KINOMEscan of compound I-5 at 10 μM (percent control %)
ITK = ITK (Homo sapiens (Human), UniProt Q08881); assay: KINOMEscan kinase selectivity profiling; type: binding; conditions: read-out: Ambit KINOMEscan of compound I-5 at 10 μM (percent control %)
ABL1(T315I) = ABL1(T315I) (Homo sapiens (Human), UniProt P00519, T315I); assay: KINOMEscan kinase selectivity profiling; type: binding; conditions: read-out: Ambit KINOMEscan of compound I-5 at 10 μM (percent control %)
CIT = CIT (Homo sapiens (Human), UniProt O14578); assay: KINOMEscan kinase selectivity profiling; type: binding; conditions: read-out: Ambit KINOMEscan of compound I-5 at 10 μM (percent control %)
RET = RET (Homo sapiens (Human), UniProt P07949); assay: KINOMEscan kinase selectivity profiling; type: binding; conditions: read-out: Ambit KINOMEscan of compound I-5 at 10 μM (percent control %)
EPHB2 = EPHB2 (Homo sapiens (Human), UniProt P29323); assay: KINOMEscan kinase selectivity profiling; type: binding; conditions: read-out: Ambit KINOMEscan of compound I-5 at 10 μM (percent control %)
EPHB2, sequence (P29323 19-1055): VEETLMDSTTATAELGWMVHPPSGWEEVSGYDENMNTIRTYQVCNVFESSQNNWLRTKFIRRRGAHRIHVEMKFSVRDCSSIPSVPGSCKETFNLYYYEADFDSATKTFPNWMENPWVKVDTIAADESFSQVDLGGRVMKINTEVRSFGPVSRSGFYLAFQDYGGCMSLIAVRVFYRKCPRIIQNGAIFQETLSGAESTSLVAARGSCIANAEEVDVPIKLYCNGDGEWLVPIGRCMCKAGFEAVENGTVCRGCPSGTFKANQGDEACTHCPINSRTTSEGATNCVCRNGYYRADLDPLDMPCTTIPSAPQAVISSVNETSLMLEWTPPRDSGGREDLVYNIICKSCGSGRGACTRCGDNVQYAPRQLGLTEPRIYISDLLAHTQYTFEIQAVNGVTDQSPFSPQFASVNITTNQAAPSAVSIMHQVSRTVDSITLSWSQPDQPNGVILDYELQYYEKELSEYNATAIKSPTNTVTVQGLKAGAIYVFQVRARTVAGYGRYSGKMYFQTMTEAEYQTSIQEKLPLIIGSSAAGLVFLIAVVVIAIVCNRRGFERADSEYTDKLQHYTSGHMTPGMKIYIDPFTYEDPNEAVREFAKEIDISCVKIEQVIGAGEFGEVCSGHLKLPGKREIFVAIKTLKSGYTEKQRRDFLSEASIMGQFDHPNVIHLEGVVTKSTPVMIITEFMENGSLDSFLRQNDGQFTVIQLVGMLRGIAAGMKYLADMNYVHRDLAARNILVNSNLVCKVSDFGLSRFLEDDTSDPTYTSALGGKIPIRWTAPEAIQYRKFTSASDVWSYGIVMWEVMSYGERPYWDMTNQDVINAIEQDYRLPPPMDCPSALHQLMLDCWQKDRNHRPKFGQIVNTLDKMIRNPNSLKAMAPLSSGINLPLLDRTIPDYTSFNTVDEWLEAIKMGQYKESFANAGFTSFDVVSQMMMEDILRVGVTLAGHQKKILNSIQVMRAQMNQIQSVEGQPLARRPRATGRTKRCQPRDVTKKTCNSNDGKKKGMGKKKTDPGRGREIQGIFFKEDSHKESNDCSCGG

HPK1, sequence (Q92918 whole entry): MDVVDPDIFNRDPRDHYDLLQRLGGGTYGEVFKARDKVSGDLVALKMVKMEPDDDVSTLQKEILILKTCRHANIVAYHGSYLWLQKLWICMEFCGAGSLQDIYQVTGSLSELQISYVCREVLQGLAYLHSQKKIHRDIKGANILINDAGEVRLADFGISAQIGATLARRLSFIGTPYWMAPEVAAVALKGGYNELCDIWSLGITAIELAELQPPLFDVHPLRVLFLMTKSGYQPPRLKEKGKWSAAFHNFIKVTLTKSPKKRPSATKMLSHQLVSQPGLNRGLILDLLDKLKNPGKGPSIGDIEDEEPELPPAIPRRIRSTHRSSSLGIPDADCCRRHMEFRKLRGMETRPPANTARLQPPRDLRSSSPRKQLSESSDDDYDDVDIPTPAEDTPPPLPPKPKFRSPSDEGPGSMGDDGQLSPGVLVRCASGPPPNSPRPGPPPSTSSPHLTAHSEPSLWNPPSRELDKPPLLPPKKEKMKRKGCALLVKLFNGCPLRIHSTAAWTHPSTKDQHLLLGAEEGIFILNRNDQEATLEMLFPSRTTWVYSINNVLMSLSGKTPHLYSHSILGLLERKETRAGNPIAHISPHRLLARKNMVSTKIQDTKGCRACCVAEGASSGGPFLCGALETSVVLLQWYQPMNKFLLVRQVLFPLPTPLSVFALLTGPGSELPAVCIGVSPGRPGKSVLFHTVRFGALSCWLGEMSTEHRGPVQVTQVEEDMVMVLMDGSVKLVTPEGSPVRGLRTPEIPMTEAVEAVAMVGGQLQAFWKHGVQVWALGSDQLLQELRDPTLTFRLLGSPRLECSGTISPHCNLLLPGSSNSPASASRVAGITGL
CDC2L2, sequence (Q9UQ88 whole entry): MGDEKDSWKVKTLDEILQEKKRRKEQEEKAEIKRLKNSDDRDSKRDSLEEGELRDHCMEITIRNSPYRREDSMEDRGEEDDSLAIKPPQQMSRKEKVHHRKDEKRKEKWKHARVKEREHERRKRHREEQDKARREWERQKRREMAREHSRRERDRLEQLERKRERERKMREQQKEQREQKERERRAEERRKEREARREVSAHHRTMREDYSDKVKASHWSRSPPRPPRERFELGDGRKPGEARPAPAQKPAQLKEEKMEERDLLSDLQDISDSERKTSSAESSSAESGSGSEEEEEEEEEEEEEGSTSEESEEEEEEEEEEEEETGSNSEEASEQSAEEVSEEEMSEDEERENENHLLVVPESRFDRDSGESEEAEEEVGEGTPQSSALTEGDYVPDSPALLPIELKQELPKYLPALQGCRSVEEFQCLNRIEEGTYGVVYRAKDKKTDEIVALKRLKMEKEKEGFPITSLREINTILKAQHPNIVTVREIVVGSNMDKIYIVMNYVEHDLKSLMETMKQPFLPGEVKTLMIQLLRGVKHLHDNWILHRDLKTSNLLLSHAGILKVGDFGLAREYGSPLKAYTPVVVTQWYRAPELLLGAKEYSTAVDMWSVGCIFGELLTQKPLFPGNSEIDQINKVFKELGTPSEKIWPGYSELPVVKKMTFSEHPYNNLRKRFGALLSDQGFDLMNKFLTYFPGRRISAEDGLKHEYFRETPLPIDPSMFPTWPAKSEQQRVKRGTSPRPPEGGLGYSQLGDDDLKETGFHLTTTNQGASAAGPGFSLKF
MAP4K2, sequence (Q12851 whole entry): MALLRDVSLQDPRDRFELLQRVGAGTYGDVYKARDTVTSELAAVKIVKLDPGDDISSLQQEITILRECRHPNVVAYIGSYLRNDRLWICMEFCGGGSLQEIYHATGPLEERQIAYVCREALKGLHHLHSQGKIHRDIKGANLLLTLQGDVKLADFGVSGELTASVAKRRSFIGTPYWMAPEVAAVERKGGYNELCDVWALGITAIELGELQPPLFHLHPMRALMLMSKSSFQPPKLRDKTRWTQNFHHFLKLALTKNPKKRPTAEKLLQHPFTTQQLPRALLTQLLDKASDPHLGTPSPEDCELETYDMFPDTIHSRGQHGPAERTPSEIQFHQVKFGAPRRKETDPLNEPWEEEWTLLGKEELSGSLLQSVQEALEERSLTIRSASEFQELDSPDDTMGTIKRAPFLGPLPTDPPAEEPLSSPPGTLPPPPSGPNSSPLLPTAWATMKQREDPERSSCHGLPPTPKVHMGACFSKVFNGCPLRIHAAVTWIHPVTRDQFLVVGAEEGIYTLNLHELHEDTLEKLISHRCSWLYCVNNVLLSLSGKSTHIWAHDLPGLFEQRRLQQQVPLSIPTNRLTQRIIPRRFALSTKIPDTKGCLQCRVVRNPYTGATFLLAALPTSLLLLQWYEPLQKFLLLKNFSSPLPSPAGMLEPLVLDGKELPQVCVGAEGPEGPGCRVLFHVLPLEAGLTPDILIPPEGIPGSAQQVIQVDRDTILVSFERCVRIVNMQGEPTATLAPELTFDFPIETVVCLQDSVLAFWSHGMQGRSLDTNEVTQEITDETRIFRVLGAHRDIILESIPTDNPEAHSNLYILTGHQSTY
CDKL3, sequence (Q8IVW4 whole entry): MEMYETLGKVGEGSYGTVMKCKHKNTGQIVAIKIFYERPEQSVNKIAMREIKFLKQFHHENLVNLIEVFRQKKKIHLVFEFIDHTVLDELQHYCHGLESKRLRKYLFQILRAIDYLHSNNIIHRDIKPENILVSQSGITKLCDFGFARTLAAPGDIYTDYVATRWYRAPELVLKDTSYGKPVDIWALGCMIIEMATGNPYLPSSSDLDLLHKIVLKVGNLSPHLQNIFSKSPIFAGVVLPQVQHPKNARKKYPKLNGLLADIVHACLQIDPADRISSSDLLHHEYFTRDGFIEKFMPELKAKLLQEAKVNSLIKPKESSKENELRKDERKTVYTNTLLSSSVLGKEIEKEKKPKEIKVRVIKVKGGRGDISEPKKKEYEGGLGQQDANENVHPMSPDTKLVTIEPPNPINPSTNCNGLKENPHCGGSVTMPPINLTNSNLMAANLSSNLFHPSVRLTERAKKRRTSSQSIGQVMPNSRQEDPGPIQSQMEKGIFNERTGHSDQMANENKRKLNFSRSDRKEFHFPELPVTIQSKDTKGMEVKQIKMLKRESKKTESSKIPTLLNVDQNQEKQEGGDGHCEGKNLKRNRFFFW
FES, sequence (P07332 whole entry): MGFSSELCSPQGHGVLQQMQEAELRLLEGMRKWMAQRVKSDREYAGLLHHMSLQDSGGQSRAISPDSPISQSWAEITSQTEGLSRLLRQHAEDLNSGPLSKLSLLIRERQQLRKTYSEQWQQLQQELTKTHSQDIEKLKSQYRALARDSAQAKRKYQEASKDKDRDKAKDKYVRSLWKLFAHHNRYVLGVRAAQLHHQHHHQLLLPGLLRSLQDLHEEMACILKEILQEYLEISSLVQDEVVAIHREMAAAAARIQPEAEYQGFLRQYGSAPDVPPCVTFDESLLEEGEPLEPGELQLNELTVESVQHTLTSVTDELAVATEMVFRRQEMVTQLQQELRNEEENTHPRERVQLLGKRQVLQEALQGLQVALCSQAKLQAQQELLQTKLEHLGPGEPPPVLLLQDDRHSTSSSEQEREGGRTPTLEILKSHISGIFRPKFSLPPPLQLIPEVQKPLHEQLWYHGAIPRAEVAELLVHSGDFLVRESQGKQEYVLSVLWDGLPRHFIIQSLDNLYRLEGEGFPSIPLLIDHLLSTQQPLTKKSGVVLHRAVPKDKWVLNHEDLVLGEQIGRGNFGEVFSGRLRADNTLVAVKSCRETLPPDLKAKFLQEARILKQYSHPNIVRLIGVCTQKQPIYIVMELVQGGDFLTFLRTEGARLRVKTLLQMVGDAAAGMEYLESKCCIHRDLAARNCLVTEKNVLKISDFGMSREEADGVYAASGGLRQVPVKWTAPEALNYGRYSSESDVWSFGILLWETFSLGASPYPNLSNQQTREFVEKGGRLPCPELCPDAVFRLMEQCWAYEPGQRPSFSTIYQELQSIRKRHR

remaining binding at 10 µM (RIPK1): 0% | remaining binding at 10 µM (CSF1R): 0% | remaining binding at 10 µM (PFTK1): 0% | remaining binding at 10 µM (TAK1): 0% | remaining binding at 10 µM (EPHA8): 0% | remaining binding at 10 µM (MERTK): 0% | remaining binding at 10 µM (EPHB1): 0% | remaining binding at 10 µM (KIT): 0% | remaining binding at 10 µM (CDKL3): 0% | remaining binding at 10 µM (PDGFRB): 0% | remaining binding at 10 µM (HPK1): 0% | remaining binding at 10 µM (MAP4K2): 0% | remaining binding at 10 µM (PFTAIRE2): 0% | remaining binding at 10 µM (PDGFRA): 0% | remaining binding at 10 µM (RET(M918T)): 0% | remaining binding at 10 µM (TIE2): 0% | remaining binding at 10 µM (RET(V804L)): 0% | remaining binding at 10 µM (EPHA6): 0% | remaining binding at 10 µM (FES): 0% | remaining binding at 10 µM (TRKC): 0% | remaining binding at 10 µM (CDC2L2): 0% | remaining binding at 10 µM (SRC): 0% | IC50 (JAK2): 660 nM | remaining binding at 10 µM (KIT(V559D)): 0% | remaining binding at 10 µM (FGR): 0% | remaining binding at 10 µM (LYN): 0% | remaining binding at 10 µM (FLT4): 0% | remaining binding at 10 µM (p38-delta): 0% | remaining binding at 10 µM (RAF1): 0% | remaining binding at 10 µM (ABL2): 0% | remaining binding at 10 µM (TAOK3): 0% | remaining binding at 10 µM (BRAF(V600E)): 0% | remaining binding at 10 µM (TRKB): 0% | remaining binding at 10 µM (INSRR): 0% | remaining binding at 10 µM (RET(V804M)): 0% | remaining binding at 10 µM (EPHB4): 0% | remaining binding at 10 µM (EPHA4): 0% | remaining binding at 10 µM (KIT(L576P)): 0% | remaining binding at 10 µM (ABL1(Q252H)): 0% | remaining binding at 10 µM (TIE1): 0% | remaining binding at 10 µM (ITK): 0% | remaining binding at 10 µM (ABL1(T315I)): 0% | remaining binding at 10 µM (CIT): 0% | remaining binding at 10 µM (RET): 0% | remaining binding at 10 µM (EPHB2): 0%
Structure (SMILES): CCN1CCN(Cc2cc(NC(=O)c3ccc(C)c(-c4ccc5nc(NC(=O)C6CC6)sc5n4)c3)cc(C(F)(F)F)c2)CC1 [Compound I-5]
